Assay results published in patent US12084431B2, “Pharmaceutical salts of pyrimidine derivatives and method of treating disorders” (ARIAD Pharmaceuticals, Inc., priority 2018, dated 2024).
Where two headings read alike, the source gives them in different places.

Columns and labels:
[1] = Single rising dose study in healthy subjects (safety, food effect, relative bioavailability); format: in vivo, human
Text: This study is a randomized, double-blind, placebo-controlled single rising dose study (Part 1), followed by an open-label, crossover evaluation of the effects of a low-fat meal on the pharmacokinetics (PK) of Compound (A) (Part 2), and a crossover evaluation of the relative bioavailability of Compound (A) drug-in-capsule (DiC) (test) versus DiC (reference) in healthy subjects (Part 3).

[2] = Phase 1/2 study, safety (adverse events, dose limiting toxicities, MTD)
Description: Patients with advanced NSCLC refractory to standard therapy received daily oral doses (5-120 mg) of Compound (A) in the dose-escalation phase. Compound (A) was provided as polymorphic Form-I of the succinate salt of Compound (A). Compound (A) was formulated as a drug-in-capsule with no excipients and administered orally. Preliminary antitumor activity (by RECIST v1.1), safety and pharmacokinetics are reported for patients receiving at least one dose.
As part of the same phase ½ study as described in Example 12, a dose escalation study was performed. […] 2018.
The phase 2 portion of the study was initiated to expand the study in two 160 mg QD cohorts (EGFR exon 20 mutant NSCLC patients with or without brain metastases) and continue to enroll more patients in the 120 mg cohort.

[3] = test system: advanced NSCLC (EGFR exon 20 insertions); test: Phase 1/2 study, antitumor activity / disease assessment by RECIST v1.1; format: in vivo, human
Description: 52 patients were enrolled as of 30 Jan. 2018.
Disease stabilization started to be reported at the 40 mg QD cohort. Disease assessments for patients who had at least one disease assessment following treatment with Compound (A) are shown in Table 21. All patients who responded have EGFR exon 20 insertion mutations and had previously been treated with platinum-based chemotherapy, EGFR TKIs, or PD-1 inhibitors.

[4] = Clinical pharmacokinetics in NSCLC patients, oral once daily; format: in vivo, human; details: for half-life: human, plasma, po
Description: Clinical PK data includes data from the dose escalation portion of the study. Compound (A) has been administered orally once per day in 28-day treatment cycles at dose levels of 5, 10, 20, 40, 80, 120, 160 and 180 mg. […] The dosage identified in milligrams (mg) is based on the weight of the freebase of Compound (A). FIGS. 33, 34 show the mean plasma concentration-time profiles of Compound (A) following oral administration of Compound (A) once per day in NSCLC patients.
Compound (A) is administered orally on an empty stomach once per day continuously.

[5] = Stability stress testing (ambient light, 40° C./75% RH, 80° C., 7 days; XRPD and HPLC purity); format: physicochemical; details: for XRPD after storage: 7 days, all storage conditions (ambient light, 40° C./75% RH, 80° C.); for Purity, 40° C./75% RH / Purity, 80° C. / Purity, Ambient light: HPLC purity after 7 days, open vial; for Purity, Ambient light: room temperature; for Input purity: HPLC purity before stress storage; for Chemical Stability: summary in Table 17
Description: Approximately 5 mg of the appropriate samples were placed into 2 mL clear glass vials and the vials were all stored open under the conditions of ambient light, 40° C./75% RH, and 80° C. for 7 days, respectively. The ambient light sample was left open on the bench at room temperature. The 80° C. sample was placed open into an 80° C. oven.

physchem = details: pH 6.97, water, thermodynamic from solid
Description: (§1) The resulting solid material was isolated by centrifugation and analyzed by XRPD, while the filtrate was analyzed by HPLC for concentration determination. The pH of the resulting filtrate was also determined.

[6] = Thermodynamic aqueous solubility studies (de-ionized water, 24 h, HPLC concentration, filtrate pH, XRPD of solid); details: for pH at Saturation: pH of filtrate after 24 h slurry in de-ionized water (pH 6.97), ambient temperature
Description: as §1

[7] = Vapour sorption analysis (GVS, hygroscopicity); format: physicochemical; details: % uptake at 90% RH
Description: Approximately 10 mg of the sample was placed into a mesh vapor sorption balance pan and loaded into an IGASorp Moisture Sorption Analyzer balance by Hiden Analytical. The sample was subjected to a ramping profile from 40 to 90% relative humidity (RH) at 10% increments to 90% RH, maintaining the sample at each step until a stable weight had been achieved (98% step completion). After completion of the sorption cycle, the sample was dried using the same procedure (initially from 90% RH to 0% RH and finally taken back to the starting point of 40% RH). The sorption/desorption profiles were then repeated to give a double-cycle plot. The weight changes during the sorption/desorption cycles were plotted, allowing for the hygroscopic nature of the sample to be determined.

[8] = 80 mg QD cohort, oral, NSCLC patients, RECIST v1.1
[9] = 120 mg QD cohort, oral, NSCLC patients, RECIST v1.1
[10] = 160 mg QD, number of the 26 patients in efficacy analysis

## C=CC(=O)Nc1cc(Nc2ncc(C(=O)OC(C)C)c(-c3cn(C)c4ccccc34)n2)c(OC)cc1N(C)CCN(C)C [Compound (A), propan-2-yl 2-[5-(acryloylamino)-4-{[2-(dimethylamino)ethyl](methyl)amino}-2-methoxyanilino]-4-(1-methyl-1H-indol-3-yl)pyrimidine-5-carboxylate]
[1]
  SAEs: No SAEs were reported
[1]; up to a single oral dose of 160 mg
  safety and tolerability: safe and well tolerated
[2]; QD, oral, NSCLC patients, dose escalation 5-180 mg QD and 40 mg BID
  maximum tolerated dose (MTD): 160 mg
[2]; human, in vivo
  discontinuation for adverse event (AE), patients: 15.4%
  patients with Grade 3 TEAEs: 51.9%
  patients with at least 1 treatment-emergent serious adverse event (SAE): 38.5%
  patients with at least 1 treatment-related SAE: 9.6%
  patients with at least 1 treatment-related adverse event (TRAE): 78.8%
  patients with at least one TEAE: 88.5%
[2]; in vivo
  dose limiting toxicities: Two dose limiting toxicities, both pneumonitis
[3]; 40 mg QD cohort, oral, NSCLC patients, RECIST v1.1
  Disease assessments: SD (stable disease), number of patients: 3 patients
[3]; 80 mg QD and above, including 1 at 180 mg QD
  additional patients with SD: 6 patients
[3]; 80 mg QD and above, 2 confirmed PR at 80 mg QD, 1 confirmed complete response at 120 mg QD, 2 PR awaiting confirmation at 160 mg QD
  objective response: 5 patients
[3]; [8]
  Disease assessments: PR (partial response), number of patients: 2 patients
  Disease assessments: SD (stable disease), number of patients: 2 patients
[3]; [9]
  Disease assessments: CR (complete response), number of patients: 1 patient
  Disease assessments: SD (stable disease), number of patients: 2 patients
[3]; 160 mg QD cohort, oral, NSCLC patients, RECIST v1.1
  Disease assessments: SD (stable disease), number of patients: 1 patient
[3]; 160 mg QD cohort, oral, NSCLC patients, RECIST v1.1, unconfirmed
  Disease assessments: PR (partial response), number of patients: 2 patients ^a
[3]; 52 patients, data cut
  discontinuation for documented progressive disease (PD) per RECIST version 1.1, patients: 26.9%
[3]; of 14 evaluable patients, 40 mg n=3, 80 mg n=1, 120 mg n=1
  progressive disease (PD) as best response: 5 patients
[3]; of 14 evaluable patients, 40 mg n=3, 80 mg n=2, 120 mg n=1
  stable disease (SD) as best response: 6 patients
[3]; of 14 evaluable patients, 80 mg n=2 both confirmed, 120 mg single PR awaiting confirmation
  partial response (PR) as best response: 3 patients
[3]; prior therapies including EGFR TKIs and immuno-oncology agents
  response (PR, CR) versus prior treatment: observed in patients regardless of prior treatment therapies
[4]; 5 to 180 mg QD, suggesting no obvious trend of time-dependent inhibition or auto-induction
  accumulation, peak/trough ratio and molar metabolite/parent Cav ratios of the two active metabolites versus dose: independent of Compound (A) dose
[4]; Cycle 2 Day 1, multiple dose, 5 to 180 mg QD
  AUC24 dependence on dose: increased in an approximately dose-proportional manner
[4]; NSCLC patients, daily oral doses 5-120 mg, first results
  AUC0-24,ss dependence on dose: increased in a dose-proportional manner
[4]; NSCLC patients, daily oral doses 5-120 mg, first results, read-out: effective t1/2 (converted)
  half-life: ~16 h
[4]; oral QD, NSCLC patients, read-out: effective half-life based on accumulation, geometric mean (converted)
  half-life: ~15 h
[4]; oral QD, NSCLC patients, read-out: effective half-life based on accumulation, range
  half-life: 6 to 27 h
[4]; oral QD
  accumulation in AUC24: approximately 1.5 fold

## C=CC(=O)Nc1cc(Nc2ncc(C(=O)OC(C)C)c(-c3cn(C)c4ccccc34)n2)c(OC)cc1N(C)CCN(C)C.Cc1ccc(S(=O)(=O)O)cc1 [Tosylate, isopropyl 2-((5-acrylamido-4-((2-(dimethylamino)ethyl) (methyl)amino)-2-methoxyphenyl)amino)-4-(1-methyl-1H-indol-3-yl)pyrimidine-5-carboxylate tosylate]
[5]
  XRPD after storage: No change under all storage
  Purity, 40° C./75% RH: 99.4
  Purity, 80° C.: 99.4
  Purity, Ambient light: 99.5
  Input purity: 99.7
  Chemical Stability: Stable
physchem
  solubility at 24 h: 400 µg/mL
[6]
  pH at Saturation: 6.38
[7]
  GVS (Hygroscopicity): 1.4%

## C=CC(=O)Nc1cc(Nc2ncc(C(=O)OC(C)C)c(-c3cn(C)c4ccccc34)n2)c(OC)cc1N(C)CCN(C)C [Succinate, isopropyl 2-((5-acrylamido-4-((2-(dimethylamino)ethyl) (methyl)amino)-2-methoxyphenyl)amino)-4-(1-methyl-1H-indol-3-yl)pyrimidine-5-carboxylate succinate]
[2]; human, in vivo
  patients with any TEAE leading to treatment discontinuation: 18.8%
  patients with at least 1 Grade≥3 TEAE: 58.4%
  patients with at least 1 Grade≥3 TRAE: 29.7%
  patients with at least 1 TEAE: 98.0%
  patients with at least 1 TRAE: 91.1%
  patients with at least 1 treatment-emergent SAE: 35.6%
  patients with at least 1 treatment-related SAE: 10.9%
[5]
  XRPD after storage: No change under all storage
  Input purity: 99.7
  Chemical Stability: Stable
[5]; succinate
  Purity, 40° C./75% RH: 99.6
  Purity, 80° C.: 99.6
  Purity, Ambient light: 99.6
[3]; 160 mg QD, 26 patients with EGFR exon 20 insertion mutations, 95% CI: 33.37%, 73.41%
  overall response rate (ORR) (best response): 53.8%
[3]; 160 mg QD, 26 patients with EGFR exon 20 insertion mutations, 95% CI: 69.85%, 97.55%
  disease control rate (DCR): 88.5%
[3]; [10]
  confirmed partial response (PR): 7
  unconfirmed PR awaiting confirmation: 6
[6]; de-ionized water, pH 6.97, water, thermodynamic from solid, Solubility in Water, de-ionized water (pH 6.97), slurry shaken at ambient temperature for 24 h, filtrate by HPLC, salts of Compound (A)
  solubility at 24 h: 1900 µg/mL
[6]; succinate
  pH at Saturation: 5.00
[7]; succinate
  GVS (Hygroscopicity): 1.3%
